Assay [1] in a line: Metal chelating activity assessed as compound-Fe3+ complex formation by UV-Vis spectroscopic analysis.
The target of assay [2] is T1, Amyloid-beta precursor protein (Homo sapiens, UniProt P05067). Description: Inhibition of amyloid beta (1 to 42) (unknown origin) self-induced aggregation at 20 uM incubated for 24 hrs by Thioflavin T based fluorometric assay relative to control.
In the next assay the target is Histamine H3 receptor (Homo sapiens, UniProt Q9Y5N1). Description: Antagonist activity at human H3 receptor by TR-FRET assay. The format is functional. In general terms: In TR-FRET formats the signal depends on donor and acceptor labels being close together.
Sequence of Histamine H3 receptor (Q9Y5N1 whole entry): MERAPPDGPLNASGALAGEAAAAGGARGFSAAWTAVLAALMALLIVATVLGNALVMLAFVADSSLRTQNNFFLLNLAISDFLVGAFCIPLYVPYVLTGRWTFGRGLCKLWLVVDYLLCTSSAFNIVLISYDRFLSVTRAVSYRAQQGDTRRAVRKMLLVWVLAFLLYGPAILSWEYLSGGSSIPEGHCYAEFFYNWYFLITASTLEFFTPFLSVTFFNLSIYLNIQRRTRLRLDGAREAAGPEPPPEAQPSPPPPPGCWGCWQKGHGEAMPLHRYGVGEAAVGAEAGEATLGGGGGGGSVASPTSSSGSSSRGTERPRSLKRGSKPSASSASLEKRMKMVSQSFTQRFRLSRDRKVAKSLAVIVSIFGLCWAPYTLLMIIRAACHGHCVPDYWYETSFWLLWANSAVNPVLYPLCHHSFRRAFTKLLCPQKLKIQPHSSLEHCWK
A short description of assay [3]: Metal chelating activity assessed as compound-Cu2+ complex formation by UV-Vis spectroscopic analysis.
Assay [4] concerns the target T1, Amyloid-beta precursor protein. Description: Inhibition of amyloid beta (1 to 42) (unknown origin) self-induced aggregation incubated for 24 hrs by Thioflavin T based fluorometric assay.
Assay [5] in a line: Antioxidant activity assessed as trolox equivalent antioxidant capacity. The format is functional.
In assay [6] the target is T1, Amyloid-beta precursor protein. Description: Inhibition of amyloid beta (1 to 42) (unknown origin) self-induced aggregation at 20 uM incubated for 24 hrs by transmission electron microscopic analysis.
Assay [7] can be described thus: Disaggregation of copper-induced amyloid beta (1 to 42) (unknown origin) preformed fibrils at 50 uM measured after 24 hrs by ThT fluorescence assay.
The target in assay [8] is T1, Amyloid-beta precursor protein. Description: Disaggregation of self-induced amyloid beta (1 to 42) (unknown origin) preformed fibrils at 20 uM measured after 24 hrs by transmission electron microscopic analysis.
A short description of assay [9]: Disaggregation of copper-induced amyloid beta (1 to 42) (unknown origin) preformed fibrils at 50 uM measured after 24 hrs by transmission electron microscopic analysis.
Assay [10] in a line: Metal chelating activity assessed as formation of Cu2+-compound complex stoichiometry ratio of 2:1 in presence of CuCl2 by Job's plot analysis.
Assay [11] deals with T1, Amyloid-beta precursor protein. Description: Disaggregation of self-induced amyloid beta (1 to 42) (unknown origin) preformed fibrils assessed as reduction in fluorescence intensity at 20 uM after 24 hrs by thioflavin-T fluorescence assay relative to control. More on the design: scale not given: the % may be the effect or the level left.
The nature of assay [12]: Inhibition of copper-induced amyloid beta (1 to 42) (unknown origin) aggregation at 50 uM measured after 24 hrs by transmission electron microscopic analysis.
Assay [13] can be described thus: Inhibition of copper-induced amyloid beta (1 to 42) (unknown origin) aggregation at 50 uM measured after 24 hrs by thioflavin T based fluorescence assay.
Assay [14] in a line: Metal chelating activity assessed as mole fraction required to show 2:1 stoichiometry ratio for compound-Cu2+ complex formation in presence of CuCl2 by Job's plot analysis.

Data on 22 compounds can be found in ChEMBL document CHEMBL4811320, “Design, synthesis and biological evaluation of 2-styryl-5-hydroxy-4-pyrone derivatives and analogues as multiple functional agents with the potential for the treatment of Alzheimer's disease” (Bioorg Med Chem, 2021).

The source made the active and inactive calls. The calls are words filed in the database; no cut-off is given here.

The inhibition is the drop in the measured response relative to a control, in per cent. The IC50 is the concentration that inhibits the measured activity by half.

T1 sequence (P05067 whole entry): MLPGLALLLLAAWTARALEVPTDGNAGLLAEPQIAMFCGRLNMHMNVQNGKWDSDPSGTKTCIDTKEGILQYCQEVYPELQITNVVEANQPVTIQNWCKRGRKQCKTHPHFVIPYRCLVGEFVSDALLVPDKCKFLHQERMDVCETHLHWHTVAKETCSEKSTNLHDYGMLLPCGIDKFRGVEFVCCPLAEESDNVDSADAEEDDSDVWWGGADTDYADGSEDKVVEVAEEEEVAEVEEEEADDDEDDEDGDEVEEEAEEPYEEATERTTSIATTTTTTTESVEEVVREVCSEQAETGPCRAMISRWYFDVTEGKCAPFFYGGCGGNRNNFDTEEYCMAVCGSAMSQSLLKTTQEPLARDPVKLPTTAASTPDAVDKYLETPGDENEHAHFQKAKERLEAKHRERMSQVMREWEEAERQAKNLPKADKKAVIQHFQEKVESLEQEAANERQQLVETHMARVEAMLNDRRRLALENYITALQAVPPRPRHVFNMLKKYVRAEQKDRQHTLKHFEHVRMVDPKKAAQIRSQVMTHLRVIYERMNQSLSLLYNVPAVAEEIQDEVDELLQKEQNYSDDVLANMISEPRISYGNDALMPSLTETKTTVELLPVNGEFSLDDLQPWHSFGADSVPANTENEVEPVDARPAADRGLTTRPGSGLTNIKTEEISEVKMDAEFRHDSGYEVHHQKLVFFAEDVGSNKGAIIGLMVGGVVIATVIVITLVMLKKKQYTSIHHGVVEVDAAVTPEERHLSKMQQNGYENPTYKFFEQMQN

As for `CCN(CC)CCCOc1ccc(/C=C/c2cc(=O)c(O)co2)cc1`, the result in assay [1] and in assay [3] was Active. The same compound displayed an inhibition in [2] of 94.6%. For the same compound, the figures for the IC50 (at Histamine H3 receptor; in assay [4]) were 16.9 nM and 3.95 µM, respectively. Besides, the Activity in assay [5] was found to be 5.08.

The compound `Oc1cccc2ccc(/C=C/c3ccc(OCCCN4CCCCC4)cc3)nc12` came in with an inhibition in [2] of 15.7%. The IC50 against Histamine H3 receptor turned out to be 14.5 nM. Further, the Activity in [5] stood at 0.96.

`O=c1cc(/C=C/c2ccc(OCCCN3CCCCC3)cc2)occ1O`: the inhibition result in [6], in assay [12] and in [13] was “Active” throughout. Moreover, the outcome in assay [7], in assay [8], in [9], in [1], in [10] and in [3] was Active. The inhibition in assay [2] is 90.8%. Further, the Activity came out at 29.4% in assay [11] and 5.22 in assay [5]. The IC50 at Histamine H3 receptor came to 2.74 nM; in assay [4], 3.26 µM. The Activity (mole fraction) in assay [14] amounted to 0.682.

Consider `CCn1cc(O)c(=O)cc1/C=C/c1ccc(OCCCN2CCCCC2)cc1`, for which the result in assay [1] and in assay [3] was Active. In assay [2], this compound returned an inhibition of 86.8%. The IC50 on Histamine H3 receptor was 5.07 nM; in assay [4], 3.05 µM. Further, the Activity in [5] stood at 1.78.

In the case of `CCn1cc(O)c(=O)cc1/C=C/c1ccc(OCCCN2CCCC2)cc1`, the result in assay [1] and in assay [3] was Active. For the same compound, the inhibition in assay [2] worked out at 97.6%. Also, the half-inhibitory concentration (IC50) stood at 2.18 nM at Histamine H3 receptor and 2.07 µM in [4]. In assay [5], the Activity was found to be 1.43.

`CN1CCN(CCCOc2ccc(/C=C/c3cc(=O)c(O)cn3C)cc2)CC1` registered an inhibition in assay [2] of 75.7%. Further, the figures for the IC50 (against Histamine H3 receptor; in assay [4]) were 353 nM and 6.02 µM, respectively. Further, in assay [5], the Activity was determined as 0.73.

As for `Cn1cc(O)c(=O)cc1/C=C/c1ccc(OCCCN2CCCCC2)cc1`, the result in [1] and in assay [3] was Active. Further, the inhibition in [2] stood at 87%. The IC50 on Histamine H3 receptor turned out to be 4.74 nM; in [4], 2.57 µM. Moreover, the Activity in [5] turned out to be 1.23.

In turn, `CN(C)CCCOc1ccc(/C=C/c2cc(=O)c(O)cn2C)cc1` displayed an inhibition in [2] of 70.4%. For the same compound, the 50% inhibitory concentration (IC50) came out at 85.4 nM at Histamine H3 receptor and 6.18 µM in assay [4]. For the same compound, the Activity in assay [5] stood at 1.34.

Consider `CCN(CC)CCCOc1ccc(/C=C/c2cc(=O)c(O)cn2C)cc1`, for which the result in assay [1] and in assay [3] was Active. In assay [2], the inhibition is 85%. In addition, the values for the IC50 (at Histamine H3 receptor; in assay [4]) were 7.06 nM and 5.38 µM, respectively. In addition, the Activity in [5] was 1.43.

On to `O=c1cc(/C=C/c2ccc(O)cc2)occ1O`, for which the Activity in [5] amounted to 2.03.

`Oc1cccc2ccc(/C=C/c3ccc(OCCCN4CCCC4)cc3)nc12` came in with an inhibition in assay [2] of 17.6%. Moreover, the midpoint of inhibition against Histamine H3 receptor, the IC50, lay at 16 nM. For the same compound, the Activity in assay [5] was 0.73.

For `CCN(CC)CCCC(C)Nc1ccnc2cc(Cl)ccc12` (centres undefined), the result in [7] and in [9] was Active.

Regarding `Cn1cc(O)c(=O)cc1/C=C/c1ccc(OCCCN2CCCC2)cc1`, the outcome in assay [1] and in assay [3] was Active. In assay [2], this compound registered an inhibition of 85.4%. For the same compound, the IC50 against Histamine H3 receptor worked out at 3.37 nM; in assay [4] it was 3.29 µM. In addition, the Activity in assay [5] stood at 1.28.

`O=c1cc(/C=C/c2ccc(OCCCN3CCOCC3)cc2)occ1O` returned an inhibition in assay [2] of 93.3%. Also, the IC50 came to 68.8 nM against Histamine H3 receptor and 4.12 µM in [4]. In addition, in [5], the Activity was 4.39.

In assay [2], `Cn1cc(O)c(=O)cc1/C=C/c1ccc(OCCCN2CCOCC2)cc1` returned an inhibition of 71.9%. Moreover, the IC50 amounted to 30.1 nM on Histamine H3 receptor and 5.32 µM in assay [4]. In addition, the Activity in [5] stood at 1.35.

Compound `CN1CCN(CCCOc2ccc(/C=C/c3cc(=O)c(O)co3)cc2)CC1` had an inhibition in [2] of 89.8%. The concentration for half-maximal inhibition (IC50) is 178 nM against Histamine H3 receptor and 5.54 µM in assay [4]. Further, the Activity in assay [5] was found to be 4.05.

Consider `COc1cc(/C=C/C(=O)CC(=O)/C=C/c2ccc(O)c(OC)c2)ccc1O`, for which the Activity in assay [5] was found to be 1.11.

Consider `Cc1c(C)c2c(c(C)c1O)CCC(C)(C(=O)O)O2` (centres undefined), for which the Activity in assay [5] worked out at 1.

In assay [2], `CN(C)CCCOc1ccc(/C=C/c2cc(=O)c(O)co2)cc1` registered an inhibition of 76.7%. For the same compound, the IC50 on Histamine H3 receptor stood at 104 nM; in assay [4] it was 4.51 µM. Also, the Activity in assay [5] was determined as 2.21.

In assay [2], `Cc1oc(/C=C/c2ccc(OCCCN3CCCCC3)cc2)cc(=O)c1O` displayed an inhibition of 74.8%. Moreover, the IC50 against Histamine H3 receptor was 2.65 nM; in assay [4] it was 6.26 µM. Also, the Activity in [5] stood at 1.74.

On to `O=c1cc(/C=C/c2ccc(OCCCN3CCCC3)cc2)occ1O`, for which the inhibition result in assay [6], in assay [12] and in assay [13] was “Active” in each case. Moreover, the outcome in assay [7], in assay [8], in assay [9], in assay [1], in assay [10] and in assay [3] was Active. Moreover, the inhibition in assay [2] was determined as 91.4%. In addition, the Activity was 35.1% in [11] and 4.97 in [5]. For the same compound, the IC50 against Histamine H3 receptor was 8.25 nM; in assay [4], 2.24 µM. Further, the Activity (mole fraction) in assay [14] worked out at 0.671.

As to `Cc1oc(/C=C/c2ccc(OCCCN3CCCC3)cc2)cc(=O)c1O`, in [2], the inhibition was 74.7%. For the same compound, the IC50 at Histamine H3 receptor worked out at 4.91 nM; in [4] it was 7.01 µM. Moreover, in [5], the Activity turned out to be 2.12.
